Measurements as given in US20010036944A1, “Certain benzothiazine dioxide endothelin antagonists and processes for their preparation” (priority 1997, published 2001).
Structures can show the parent of a compound that is named as a salt. Where two headings read alike, the source gives them in different places.

What was measured:
[1] = tested on: ETA, cultured rabbit renal artery vascular smooth muscle cells; experiment: Inhibition of ET-1 stimulated arachidonic acid release (AAR) in cultured rabbit vascular smooth muscle cells (ETA); type: cell-based
Experimental: In Vitro Inhibition of ET-1 Stimulated Arachidonic Acid Release (AAR) in Cultured Rabbit Vascular Smooth Muscle Cells (ETA) by the Compounds of the Invention
Antagonist activity is measured by the ability of added compounds to reduce endothelinstimulated arachidonic acid release in cultured vascular smooth muscle cells. [^3H]Arachidonic Acid Loading Media (LM) is DME/F12+0.5% FCS×0.25 mCi/mL [^3H]arachidonic acid (Amersham). Confluent monolayers of cultured rabbit renal artery vascular smooth muscle cells were incubated in 0.5 mL of the LM over 18 hours, at 37° C., in 5% CO2. The LM was aspirated and the cells were washed once with the assay buffer (Hank's BSS +10 mM HEPES +fatty acidfree BSA (1 mg/mL)), and incubated for 5 minutes with 1 mL of the prewarmed assay buffer. This solution was aspirated, followed by an additional 1 mL of prewarmed assay buffer, and further incubated for another 5 minutes. A final 5minute incubation was carried out in a similar manner. The same procedure was repeated with the inclusion of 10 μL of the test compound (1 nM to 1 μM) and 10 μL ET-1 -(0.3 nM) and the incubation was extended for 30 minutes. This solution was then collected, 10 mL of scintillation cocktail was added, and the amount of [^3H]arachidonic acid was determined in a liquid scintillation counter.

[2] = tested on: ETA, rabbit femoral artery; experiment: Antagonism of ET-1 stimulated vasoconstriction (VERAA) in the rabbit femoral artery (ETA); settings: for VERAA (pA2): ET-1 stimulated vasoconstriction, rabbit femoral artery
Source text: In Vitro Antagonism of ET-1 Stimulated Vasoconstriction (VERAA) in the Rabbit Femoral Arterv (ETA) and Sarafotoxin 6C Stimulated Vasoconstriction in the Rabbit Pulmonarv Artery (ETB)
Male New Zealand rabbits were killed by cervical dislocation and exsanguination. Femoral and pulmonary arteries were isolated, cleaned of connective tissue, and cut into 4mm rings. The endothelium was denuded by placing the rings over hypodermic tubing (32 gauge for femoral rings and 28 gauge for pulmonary rings, Small Parts, Inc., Miami, Fla.) and gently rolling them. Denuded rings were mounted in 20 mL organ baths containing Krebsbicarbonate buffer (composition in mM: NaCl, 118.2; NaHCO3, 24.8; KCl, 4.6; MgSO4 7H2O, 1.2; KH2PO4, 1.2; CaCl2 2H2O; CaNa2 EDTA, 0.026;, dextrose, 10.0), that was maintained at 37° C. and gassed continuously with 5% CO2 in oxygen (pH 7.4). Resting tension was adjusted to 3.0 g for femoral and 4.0 g pulmonary arteries; the rings were left for 90 minutes to equilibrate. Vascular rings were tested for lack of functional endothelium (ie, lack of an endotheliumdependent relaxation response to carbachol ([…]) in norepinephrine ([…]) contracted rings. Agonist peptides, ET-1 -(femoral), and S6c (pulmonary), were cumulatively added at 10-minute intervals. The ET antagonists were added 30 minutes prior to adding the agonist.

[3] = target: T1, recombinant human ETAR (HETA) (Homo sapiens, UniProt P25101); experiment: Radioligand binding, [125I]ET-1 to membranes of Ltk- cells expressing recombinant human ETAR (HETA)
T1 construct: expressed in transfected cells; host or cells: Ltk- cells (membrane preparation)
T1 sequence (P25101 21-427): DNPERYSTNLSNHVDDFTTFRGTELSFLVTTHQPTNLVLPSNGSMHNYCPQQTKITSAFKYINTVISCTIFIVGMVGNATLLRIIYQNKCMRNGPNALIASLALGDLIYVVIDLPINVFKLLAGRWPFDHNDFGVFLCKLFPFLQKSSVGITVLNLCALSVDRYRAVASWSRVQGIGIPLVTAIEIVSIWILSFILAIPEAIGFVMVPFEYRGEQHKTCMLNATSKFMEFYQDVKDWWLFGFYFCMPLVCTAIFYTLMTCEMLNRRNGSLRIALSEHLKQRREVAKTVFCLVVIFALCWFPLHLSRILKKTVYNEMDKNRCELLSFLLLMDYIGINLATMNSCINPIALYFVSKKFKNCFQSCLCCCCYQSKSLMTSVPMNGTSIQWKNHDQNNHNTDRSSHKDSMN
Experimental: (§1) The following cultured cells were used in binding experiments: Ltk-cells expressing recombinant human ETAR (HETA), and CHOKI cells expressing recombinant human ETBR (HETB).
(§2) Membranes were prepared from cultured cells by lysing cells in cold lysis buffer (5 mM HEPES, 2 mM EDTA, pH 7.4) and homogenizing with a Dounce “A” homogenizer. The homogenate was centrifuged at 30,000×g for 20 minutes at […]. Membrane pellets were suspended in cold buffer containing 20 mM Tris, 2 mM EDTA, 200 μM Pefabloc, 10 μM phosphoramidon, 10 μM leupeptin, 1 μM pepstatin at pH 7.4 and frozen at […] until use. Membranes were thawed and homogenized with a Brinkmann Polytron then diluted in tissue buffer containing 20 mM Tris, 2 mM EDTA, 200 μM Pefabloc, and 100 μM bacitracin (pH 7.4). Radioligand and competing ligands were prepared in binding buffer containing 20 mM Tris, 2 mM EDTA, and 0.1% BSA.
(§3) The assay was terminated by filtration over Whatman GF/B filters which were presoaked with 50 mM Tris, pH 7.4 containing 0.2% BSA and 100 μM bacitracin. Nonspecific binding was defined as binding in the presence of 100 nM ET-1.

[4] = tested on: acute hypoxic pulmonary hypertension; experiment: Acute hypoxic pulmonary hypertension in the rat; type: in vivo; settings: oral
[5] = Pharmacokinetics in rat; settings: in vivo
[6] = tested on: ETA receptor, human pulmonary artery smooth muscle cells; experiment: Blocking ET-1 induced Ca++ transients in human pulmonary artery smooth muscle cells; type: cell-based; settings: read-out: IC50 blocking ET-1 induced Ca++ transients via the ETA receptor
[7] = Pharmacokinetics in dog; settings: in vivo
[8] = tested on: bET-1 pressor response; experiment: Inhibition of bET-1 pressor response in dog; type: in vivo; settings: Canis lupus familiaris, oral, 24 hours postdose
[9] = target: T2, recombinant human ETBR (HETB) (Homo sapiens, UniProt P24530); experiment: Radioligand binding, [125I]ET-1 to membranes of CHOKI cells expressing recombinant human ETBR (HETB); settings: [125I]ET-1 binding, human ETB, CHOKI cell membranes
T2 construct: expressed in transfected cells; host or cells: CHOKI (CHO-K1) cells (membrane preparation)
T2 sequence (P24530 27-442): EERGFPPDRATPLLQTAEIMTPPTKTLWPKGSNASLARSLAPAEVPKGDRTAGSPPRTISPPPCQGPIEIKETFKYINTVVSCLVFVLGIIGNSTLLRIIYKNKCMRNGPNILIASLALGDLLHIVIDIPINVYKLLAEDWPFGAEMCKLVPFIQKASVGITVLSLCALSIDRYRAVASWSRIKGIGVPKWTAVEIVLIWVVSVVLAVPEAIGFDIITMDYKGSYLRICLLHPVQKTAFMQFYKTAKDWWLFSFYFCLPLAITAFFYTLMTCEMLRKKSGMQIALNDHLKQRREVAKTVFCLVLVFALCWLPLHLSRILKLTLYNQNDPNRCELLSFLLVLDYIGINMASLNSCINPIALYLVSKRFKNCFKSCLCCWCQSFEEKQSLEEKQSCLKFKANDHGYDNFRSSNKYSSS
Experimental: as §1, §2, §3

[10] = tested on: bET-1 pressor response; experiment: Inhibition of bET-1 induced pressor effect in rat; type: in vivo; settings: oral
Experimental: Inhibition of bETI Induced Pressor Effect in Rat Male Sprague-Dawley (Charles River Laboratories, Kingston, Ontario, Canada) weighing 250 to 350 g are anesthetized (Inactin, 120 mg/kg, I.P.) and acutely instrumented with a carotid artery catheter to monitor arterial blood pressure and with a jugular vein catheters to administer intravenous drugs. Once instrumented, the rats are ganglionicblocked with mecamylamine (1.25 mg/kg, I.V.) to prevent hemodynamic reflexes and then challenged with big endothelin-1 (bET-1) (1.0 nmol/kg, I.V.). The peak arterial pressor response in rats pre-treated with selected compounds of invention compared to vehicletreated rats is used to determine activity expressed as % inhibition. For I.V. activity selected compounds of invention was dose 10 minutes before the bET-1 challenge, and for oral activity selected compounds of invention was administered via oral gavage 8 or 24 hours before the bET-1 challenge.

[11] = [125I]ET-1 binding, human ETA, Ltk- cell membranes, read-out: HETA (IC50)
[12] = Oryctolagus cuniculus, VSMC, read-out: AARA (IC50, μM)

Molecule | VERAA (pA2) [2] | IC50 [3, 11] [nM] | IC50 [9] [nM] | IC50 [1, 12] [µM] | other results
4-(7-Methoxybenzo[1,3]-dioxol-5-yl)-1,1-dioxo-2-(2-trifluoromethyl-phenyl) 1,2-dihydro 1λ^6-benzo [e][1,2thiazine-3-carboxylic acid [Example 7] | 7.0 | 3 | – | – | IC50 ([1]; ET-1 (0.3 nM) stimulated arachidonic acid release, rabbit renal artery VSMC, read-out: AARA (IC50)): 0.0045 µM
CCc1cc(C2=C(C(=O)O)N(c3ccccc3C(F)(F)F)S(=O)(=O)c3ccccc32)cc2c1OCO2 [Example 10, 4-(7-Ethylbenzo[1,3]dioxol-5yl)-1,1 dioxo-2-(2-trifluoromethyl-phenyl) 1,2-dihydro1λ^6-benzo[e]11.2]thiazine-3-carboxylic acid, sodium salt] | 7.7 | – | 2200 | – | ED50 ([4]; dose dependent, read-out: ED50, inhibition of acute hypoxic pulmonary hypertension): 0.8 mg/kg; EC50 ([4]; plasma concentration, read-out: plasma EC50, inhibition of acute hypoxic pulmonary hypertension): 0.046 µg/mL; bioavailability ([5]; oral): 77%; half-life ([5]; read-out: terminal elimination t1/2 (converted)): 8.5 h; IC50 [6]: 0.2 nM; pA2, antagonism to ET-1 stimulated vasoconstriction in rabbit femoral artery [2]: 7.7; half-life [7]: 2.2 h; bioavailability ([7]; oral): 100%; IC50 ([3]; read-out: IC50 of ET-1 binding to human ETA receptors): 0.6 nM; inhibition at 15 mg/kg [8]: 25%; inhibition at 10 mg/kg ([10]; 10 mg/kg, 8 hours postdose): 44%; inhibition at 30 mg/kg ([10]; 30 mg/kg, 24 hours postdose): 48%
O=C(O)C1=C(c2ccc3c(c2)OCO3)c2ccccc2S(=O)(=O)N1c1ccccc1C(F)(F)F [Example 11, 4-Benzo[1,3]dioxol-5-yl-1,1-dioxo-2-(2-trifluoromethyl-phenyl)-1,2-dihydro-1λ^6-benzo[e][1,2]thiazine-3-carboxylic acid] | 6.6 | 11 | 11000 | – | –
Cc1ccccc1N1C(C(=O)O)=C(c2ccc3c(c2)OCO3)c2ccccc2S1(=O)=O [Example 12] | – | 61 | > 25000 | 0.1 | –
CCCc1ccccc1N1C(C(=O)O)=C(c2ccc3c(c2)OCO3)c2ccccc2S1(=O)=O [Example 14, 4-Benzo[1,3]dioxol-5-yl-2-(2-1,2-pyphenyl)-1,1-dioxo 1,2-dihydro-1λ^6-benzo[e][1,2]thiazine-3-carboxylic acid] | 5.8 | 35 | > 2500 | – | –
O=C(O)C1=C(c2ccc3c(c2)OCO3)c2ccccc2S(=O)(=O)N1c1ccccc1Br [Example 17, 4-Benzo[1,3]dioxol-5yl-2-(2bromophenyl)-1,1-dioxo-1,2-dihydro-1λ^6-benzo[e][1,2]thiazine-3-carboxylic acid] | – | 30 | > 25000 | 0.031 | –
O=C(O)C1=C(c2ccc3c(c2)OCO3)c2ccccc2S(=O)(=O)N1c1ccccc1Cl [Example 18, 4-Benzo [1,3]dioxol-5yl-2-(2-chlorophenyl)-1,1-dioxo-1,2-dihydro-1λ^6-benzo[e][1,2]thiazine-3-carboxylic acid] | 5.8 | 36 | > 25000 | 0.032 | –
O=C(O)C1=C(c2ccc3c(c2)OCO3)c2ccccc2S(=O)(=O)N1c1cc2c(cc1Cl)OCO2 [Example 25] | 6.0 | 110 | > 25000 | 0.05 | –
